Where a chain is given by its changes, count along the chain named.
What was measured:
Test in all cases: FRET ratio (YFP/CFP, […] nm) titration of purified sensor
Type in all cases: binding
[1] = molecular target: T1, NrtA (FLIP-NT; CFP_NrtA_YFP) (Synechocystis sp. PCC 6803, UniProt P73452, W102A)
T1 construct: FRET sensor: His6-CFP-NrtA-YFP; NrtA without signal peptide (first 36 residues), stop and penultimate codon removed (1227 bp, 409 residues); E. coli BL21-CodonPlus(DE3), Ni-NTA
T1 sequence (P73452 37-445 W102A): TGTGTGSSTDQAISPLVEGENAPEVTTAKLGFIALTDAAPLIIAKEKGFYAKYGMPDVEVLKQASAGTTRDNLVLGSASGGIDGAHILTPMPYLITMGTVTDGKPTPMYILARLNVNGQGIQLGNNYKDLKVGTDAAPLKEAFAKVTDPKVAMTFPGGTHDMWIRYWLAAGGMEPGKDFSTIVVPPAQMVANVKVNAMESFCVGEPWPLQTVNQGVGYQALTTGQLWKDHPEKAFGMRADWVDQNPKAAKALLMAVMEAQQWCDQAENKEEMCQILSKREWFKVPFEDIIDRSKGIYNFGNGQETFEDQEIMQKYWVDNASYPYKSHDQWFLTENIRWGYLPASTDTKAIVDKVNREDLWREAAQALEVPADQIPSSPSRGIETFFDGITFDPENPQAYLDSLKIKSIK

[2] = molecular target: T2, NrtA (FLIP-NT; CFP_NrtA_YFP) (Synechocystis sp. PCC 6803, UniProt P73452, G240Q)
T2 construct: FRET sensor: His6-CFP-NrtA-YFP; NrtA without signal peptide (first 36 residues), stop and penultimate codon removed (1227 bp, 409 residues); E. coli BL21-CodonPlus(DE3), Ni-NTA
T2 sequence (P73452 37-445 G240Q): T1 sequence (P73452 37-445 W102A) with A66W, G204Q

[3] = molecular target: T3, NrtA (FLIP-NT; CFP_NrtA_YFP) (Synechocystis sp. PCC 6803, UniProt P73452, Q155I)
T3 construct: FRET sensor: His6-CFP-NrtA-YFP; NrtA without signal peptide (first 36 residues), stop and penultimate codon removed (1227 bp, 409 residues); E. coli BL21-CodonPlus(DE3), Ni-NTA
T3 sequence (P73452 37-445 Q155I): T1 sequence (P73452 37-445 W102A) with A66W, Q119I

[4] = molecular target: T4, NrtA (FLIP-NT; CFP_NrtA_YFP) (Synechocystis sp. PCC 6803, UniProt P73452)
T4 construct: FRET sensor: His6-CFP-NrtA-YFP; NrtA without signal peptide (first 36 residues), stop and penultimate codon removed (1227 bp, 409 residues); E. coli BL21-CodonPlus(DE3), Ni-NTA
T4 sequence (P73452 37-445): T1 sequence (P73452 37-445 W102A) with A66W

O=[N+]([O-])O [nitrate]
Kd [1]: 56 µM | Kd [2]: 32 µM | Kd [3]: 1 µM | Kd [4]: 5 µM

Source: paper PMC7689916, “A Fluorescence Resonance Energy Transfer-Based Analytical Tool for Nitrate Quantification in Living Cells” (ACS Omega, 2020)
